Assay results reported in patent publication US12595269B2, “Morpholine-like monoamine releasers” (Solvonis Therapeutics Ireland Holdings Limited, priority 2022, dated 2026).
“Also recorded” adds a separate entry of the source.

What was measured:
[1] = target: T1, human P-glycoprotein transporter (Homo sapiens, UniProt P08183); assay: P-gp substrate assessment, efflux ratio in MDCKII-MDR1 cells; type: in vitro ADME; conditions: P-gp substrate classification, MDCKII-MDR1 cells
T1 construct: expressed in transfected cells; host or cells: MDCKII (canine kidney)
T1 sequence (P08183 whole entry): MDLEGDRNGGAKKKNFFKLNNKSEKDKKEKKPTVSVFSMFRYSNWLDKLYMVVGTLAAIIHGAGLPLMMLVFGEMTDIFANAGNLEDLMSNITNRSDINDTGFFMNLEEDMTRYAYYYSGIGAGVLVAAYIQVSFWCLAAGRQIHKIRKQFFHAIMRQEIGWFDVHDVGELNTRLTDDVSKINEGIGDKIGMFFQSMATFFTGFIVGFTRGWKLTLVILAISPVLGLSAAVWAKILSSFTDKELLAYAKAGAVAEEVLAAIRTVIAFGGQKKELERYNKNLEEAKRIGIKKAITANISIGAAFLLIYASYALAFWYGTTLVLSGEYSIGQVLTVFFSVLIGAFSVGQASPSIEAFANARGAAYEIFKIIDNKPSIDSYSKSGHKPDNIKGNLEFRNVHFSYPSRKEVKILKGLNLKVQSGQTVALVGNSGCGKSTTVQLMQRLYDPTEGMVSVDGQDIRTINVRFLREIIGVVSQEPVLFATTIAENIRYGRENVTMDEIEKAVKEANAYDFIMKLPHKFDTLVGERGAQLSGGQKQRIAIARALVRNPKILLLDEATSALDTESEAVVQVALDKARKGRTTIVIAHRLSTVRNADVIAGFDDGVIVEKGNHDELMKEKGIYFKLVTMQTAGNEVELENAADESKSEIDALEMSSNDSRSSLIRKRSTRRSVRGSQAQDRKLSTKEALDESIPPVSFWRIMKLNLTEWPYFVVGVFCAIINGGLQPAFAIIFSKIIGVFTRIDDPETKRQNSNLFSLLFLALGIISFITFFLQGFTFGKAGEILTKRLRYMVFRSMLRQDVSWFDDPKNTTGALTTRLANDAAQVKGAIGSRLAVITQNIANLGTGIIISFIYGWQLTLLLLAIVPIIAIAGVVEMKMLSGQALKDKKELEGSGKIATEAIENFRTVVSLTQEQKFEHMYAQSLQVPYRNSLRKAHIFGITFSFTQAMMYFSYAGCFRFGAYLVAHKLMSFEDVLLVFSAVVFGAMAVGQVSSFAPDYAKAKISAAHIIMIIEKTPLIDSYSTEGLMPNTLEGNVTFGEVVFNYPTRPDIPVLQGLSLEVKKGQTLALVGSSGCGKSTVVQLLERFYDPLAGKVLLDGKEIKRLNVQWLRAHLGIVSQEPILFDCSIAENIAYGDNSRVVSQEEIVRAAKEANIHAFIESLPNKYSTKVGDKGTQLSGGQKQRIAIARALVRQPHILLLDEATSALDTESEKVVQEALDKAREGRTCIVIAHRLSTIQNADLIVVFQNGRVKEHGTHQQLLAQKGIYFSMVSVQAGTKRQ
Description: (§1) Methods and Procedure: This study was conducted in compliance with previously described procedures to assure data integrity and adherence to GLP regulations. The experiments described herein were designed to evaluate the apparent permeability (Papp) of test compounds at pH 7.4. Additionally, the MDCKII-MDR1 cell line (Madin-Darby Canine Kidney clone II cell line heterologously expressing the human P-glycoprotein transporter) and mock cell line MDCKII were used to determine whether a compound acted as a P-gp substrate, in the absence and in the presence of the potent P-gp inhibitor. Test control items (digoxin, metoprolol, and atenolol) and control P-gp inhibitor (GF120918) stock solution were prepared in DMSO. Bidirectional assays (Apical to Basolateral [AB] and Basolateral to Apical [BA]) were run, in both the absence and presence of P-gp inhibitor GF120918 in MDCKII-MDR1 and mock cell line MDCKII, using as transport buffer HBSSH at a pH of 7.4 (n=3).
(§2) Compounds were tested at a single concentration (i.e. at 3 or 10 μM) at one time point (i.e. 60 min). Alternative concentrations or time-points may also be investigated. As reference compounds, digoxin (P-gp substrate), atenolol (low permeable compound) and metoprolol (high permeable compound) were included at a single concentration (e.g., 10 or 25 μM) and at single time point (e.g., 60 min). Digoxin transport was evaluated in two directions (apical-to-basolateral [AB] and basolateral-to-apical [BA]) in the absence and presence of GF120918 or in mock cells, MDCKII (n=3). Atenolol and metoprolol were only tested in the AB direction in absence of GF120918 or in mock cells, MDCKII (n=3). The integrity of the cell monolayer was evaluated after the permeability experiment using the paracellular permeability marker Lucifer yellow (LY) in the apical to basolateral direction in each well.
(§3) MDCKII or MDCKII-MDRI cells cultivated using DMEM (high glucose, GlutaMAX™ supplemented with pyruvate, 10% FBS HI and Pen/Strep) and seeded onto microporous PET (Polyethylene Terephthalate) membranes in HTS 96-Multiwell Insert plates at density of ˜175,000-245,000 cells/cm^2 (25000-35000 cells/well; 50 μL/well) in DMEM medium and incubated for 3-4 days at 37° C.-5% CO2. Medium was changed a day before the experiment.
(§4) Stock solutions of test items were prepared in DMSO at a concentration of 5 or 10 mM and stored at −20° C. until use. The potent P-gp inhibitor, GF120918 (stock solution 10 mM) and the reference controls digoxin, atenolol, metoprolol (stock solutions 3 or 10 mM) were prepared in DMSO and stored at −20° C. until use.
(§5) Donor working solutions of test items and reference controls will be prepared at a concentration of 10 or 25 μM, diluting the stock solutions in HBSSH. Receiver working solutions contained transport buffer only. All working solutions were prepared such that the final concentration of DMSO was <1% (v/v). A donor working solution containing LY was also prepared in transport buffer at 100 µM.
(§6) MDCKII and MDCKII-MDR1 cells were preincubated (37° C., 15 to 30 minutes) in receiver working solutions containing transport buffer on apical (A) and basolateral (B) sides. Following pre-incubation, test items and control items (digoxin) transport were measured in two directions (apical to basolateral [AB]) and basolateral to apical [BA]), and these directions were performed in triplicate sets of wells, in both the absence and presence of […] GF120918 or mock MDCKII cells. For [AB] directional transport, 75 μL of donor working solution was added to the A (apical) compartment and 235 μL of receiver working solution was added to the B (basolateral) compartment. For [BA] directional transport, 235 μL donor working solution with test items or reference controls was added to the B compartment and 75 μL receiver working solution was added to the A compartment. Transport of permeability reference controls, atenolol and metoprolol, were measured in one direction (apical to basolateral [AB]) (n=3). […]

[2] = target: T2, human P-glycoprotein (MDR1) (Homo sapiens, UniProt P08183); assay: as above; type: in vitro ADME; conditions: dog, MDCK-MDR1, pH 7.4; efflux ratio; P-gp substrate if ratio >2 and reduced by inhibitor; read-out: B/A ratio in MDCKII-MDR1 cells
T2 construct: expressed in transfected cells; host or cells: MDCKII (canine kidney)
T2 sequence (P08183 whole entry): as above
Description: as §1, §2, §3, §4, §5, §6

[3] = Apparent permeability (Papp AB) in MDCKII cells; type: in vitro ADME, Canine; conditions: dog, MDCK; pH 7.4, apical to basolateral, 60 min
Description: as §1, §2, §3, §4
Donor working solutions of test items and reference controls will be prepared at a concentration of 10 or 25 μM, diluting the stock solutions in HBSSH. Receiver working solutions contained transport buffer only. […]
MDCKII and MDCKII-MDR1 cells were preincubated (37° C., 15 to 30 minutes) in receiver working solutions containing transport buffer on apical (A) and basolateral (B) sides. Following pre-incubation, test items and control items (digoxin) transport were measured in two directions (apical to basolateral [AB]) and basolateral to apical [BA]), and these directions were performed in triplicate sets of wells, in both the absence and presence of […] GF120918 or mock MDCKII cells. […] Transport of permeability reference controls, atenolol and metoprolol, were measured in one direction (apical to basolateral [AB]) (n=3). […]

In the case of `Clc1ccc([C@]23CN[C@H](CO2)C3)cc1Cl` (single isomer, unassigned) [516A], the “Substrate Classification” value [1] is reported as “pGP-NO”, the efflux ratio at 60 min [2] is reported as 0.73 and the Papp A→B at 60 min [3] is reported as 15.8 ×10⁻⁶ cm/s.
For `Clc1ccc([C@@]23CN[C@@H](CO2)C3)cc1Cl` (single isomer, unassigned) [518A], the “Substrate Classification” value [1] was “not determined to be a substrate for P-gp; also recorded: pGP-NO”, the efflux ratio at 60 min [2] was 0.7 and the Papp A→B at 60 min [3] was 17.3 ×10⁻⁶ cm/s.
In the case of `Clc1ccc(C23CNC(CO2)C3)cc1Cl` (stereo not drawn) [522A, 1-(3,4-dichlorophenyl)-2-oxa-5-azabicyclo[2.2.1]heptane], the “Substrate Classification” value [1] is reported as “not determined to be a substrate for P-gp; also recorded: pGP-NO”, the efflux ratio at 60 min [2] is reported as 0.83 and the Papp A→B at 60 min [3] is reported as 9.45 ×10⁻⁶ cm/s.
With `CNC(C)Cc1ccc2c(c1)OCO2` (stereo not drawn) [MDMA, reference compound] the “Substrate Classification” value [1] was “not a P-gp substrate”, the efflux ratio at 60 min [2] was 1.5 and the Papp A→B at 60 min [3] was 14 ×10⁻⁶ cm/s.
